From ChEMBL document CHEMBL1201862, “PubChem BioAssay data set” (2004)
Calls of active or inactive are those of the source.

target: T1, Fatty acid synthase (Homo sapiens, UniProt P49327); assay: FAS thioesterase domain inhibitors, dose response, biochemical, endpoint fluorescence intensity, uHTS hits (AID 624327); format: functional; conditions: not given;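 note: fluorescence from hydrolysis of an O-methyl fluorescein acyl ester substrate by the enzyme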
T1 sequence (P49327 whole entry, the tested form may be a part): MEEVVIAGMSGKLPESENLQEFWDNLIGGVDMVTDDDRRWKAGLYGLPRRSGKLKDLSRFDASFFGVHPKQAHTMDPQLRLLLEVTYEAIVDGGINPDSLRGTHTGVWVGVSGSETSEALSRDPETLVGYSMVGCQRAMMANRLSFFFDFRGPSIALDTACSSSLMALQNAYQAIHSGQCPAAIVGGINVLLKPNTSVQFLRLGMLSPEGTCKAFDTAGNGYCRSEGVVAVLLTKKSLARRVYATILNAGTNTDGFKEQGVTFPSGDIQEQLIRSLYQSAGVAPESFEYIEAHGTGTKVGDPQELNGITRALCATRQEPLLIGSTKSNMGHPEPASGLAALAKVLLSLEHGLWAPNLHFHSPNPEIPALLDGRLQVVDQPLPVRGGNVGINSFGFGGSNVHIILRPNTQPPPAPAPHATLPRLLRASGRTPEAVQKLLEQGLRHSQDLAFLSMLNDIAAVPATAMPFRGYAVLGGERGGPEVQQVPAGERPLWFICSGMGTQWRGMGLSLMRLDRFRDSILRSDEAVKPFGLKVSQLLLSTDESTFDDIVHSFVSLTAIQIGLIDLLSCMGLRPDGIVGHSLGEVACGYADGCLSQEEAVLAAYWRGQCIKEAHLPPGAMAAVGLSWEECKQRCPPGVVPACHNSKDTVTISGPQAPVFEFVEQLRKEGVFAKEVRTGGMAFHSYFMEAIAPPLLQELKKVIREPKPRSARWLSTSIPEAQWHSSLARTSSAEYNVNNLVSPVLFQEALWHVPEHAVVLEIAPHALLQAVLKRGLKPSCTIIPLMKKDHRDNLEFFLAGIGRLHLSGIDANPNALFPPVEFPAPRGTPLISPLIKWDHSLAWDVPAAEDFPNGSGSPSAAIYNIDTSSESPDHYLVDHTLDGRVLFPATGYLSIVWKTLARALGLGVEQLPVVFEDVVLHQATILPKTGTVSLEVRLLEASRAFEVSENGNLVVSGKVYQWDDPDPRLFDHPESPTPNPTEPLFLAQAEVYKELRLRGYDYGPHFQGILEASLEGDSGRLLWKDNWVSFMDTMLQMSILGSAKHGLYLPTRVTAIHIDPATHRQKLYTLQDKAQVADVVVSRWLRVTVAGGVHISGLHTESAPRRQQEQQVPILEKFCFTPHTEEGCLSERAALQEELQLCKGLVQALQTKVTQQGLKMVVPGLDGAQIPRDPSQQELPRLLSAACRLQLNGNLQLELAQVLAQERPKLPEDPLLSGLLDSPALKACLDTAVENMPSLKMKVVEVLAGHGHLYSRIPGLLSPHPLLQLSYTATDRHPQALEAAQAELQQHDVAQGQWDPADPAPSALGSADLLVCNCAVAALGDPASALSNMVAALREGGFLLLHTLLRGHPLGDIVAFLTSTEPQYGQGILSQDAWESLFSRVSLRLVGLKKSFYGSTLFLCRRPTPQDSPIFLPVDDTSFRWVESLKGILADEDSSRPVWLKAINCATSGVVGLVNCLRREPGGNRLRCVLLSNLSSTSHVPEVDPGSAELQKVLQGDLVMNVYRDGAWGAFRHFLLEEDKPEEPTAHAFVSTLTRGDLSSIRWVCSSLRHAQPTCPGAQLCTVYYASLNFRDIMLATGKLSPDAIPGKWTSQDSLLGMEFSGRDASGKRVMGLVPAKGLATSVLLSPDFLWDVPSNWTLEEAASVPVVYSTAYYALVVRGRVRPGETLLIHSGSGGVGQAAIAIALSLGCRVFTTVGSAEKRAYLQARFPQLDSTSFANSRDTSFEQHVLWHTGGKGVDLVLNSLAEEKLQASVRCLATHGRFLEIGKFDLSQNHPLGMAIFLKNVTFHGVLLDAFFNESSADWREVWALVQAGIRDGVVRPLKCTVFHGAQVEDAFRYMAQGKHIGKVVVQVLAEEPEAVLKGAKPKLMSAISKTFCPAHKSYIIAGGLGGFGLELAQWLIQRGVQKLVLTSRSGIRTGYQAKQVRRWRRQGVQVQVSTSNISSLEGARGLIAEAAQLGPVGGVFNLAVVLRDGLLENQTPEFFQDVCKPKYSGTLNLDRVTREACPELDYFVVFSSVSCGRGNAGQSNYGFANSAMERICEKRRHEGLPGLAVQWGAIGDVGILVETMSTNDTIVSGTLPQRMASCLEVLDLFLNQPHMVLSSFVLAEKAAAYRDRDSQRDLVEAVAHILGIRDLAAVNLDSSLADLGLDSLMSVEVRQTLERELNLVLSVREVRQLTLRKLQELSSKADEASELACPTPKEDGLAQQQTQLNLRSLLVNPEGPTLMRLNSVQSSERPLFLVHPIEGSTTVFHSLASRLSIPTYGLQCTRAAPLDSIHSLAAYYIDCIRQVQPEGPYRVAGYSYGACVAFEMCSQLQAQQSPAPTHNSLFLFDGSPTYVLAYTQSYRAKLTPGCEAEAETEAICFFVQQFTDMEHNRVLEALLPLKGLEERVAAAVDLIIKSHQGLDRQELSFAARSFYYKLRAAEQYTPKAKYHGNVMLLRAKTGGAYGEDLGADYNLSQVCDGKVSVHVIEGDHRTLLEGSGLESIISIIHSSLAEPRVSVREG

SMILES	IC50
CN(C)CCCNC(=O)CC1C[C@H](C(=O)N2CCOCC2)[C@@]2(CCC3CCCC3)c3[nH]c4ccccc4c3CCN2C1=O (some centres not stated)	2.12 µM (active)
O=C(CC1C[C@H](C(=O)N2CCOCC2)[C@@]2(CCC3CCCC3)c3[nH]c4ccccc4c3CCN2C1=O)NCc1ccco1 (some centres not stated)	1.25 µM (active)
CCN(CC)S(=O)(=O)c1ccc(-n2cnc3cc(C)c(C)cc32)nc1	11.4 µM (active)

target: T2, Heat shock factor protein 1 (Mus musculus, UniProt P38532); assay: inhibition of MG132-induced HSE-luciferase signal, confirmation, cell-based, NIH3T3, luminescence, dose retest (AID 2382); format: functional; conditions: not given;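 note: NIH3T3 fibroblasts with HSF1-driven luciferase reporter stressed by proteasome inhibitor MG132; luminescence from HSF1-driven luciferase expression after 8 hours of MG132 stress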
T2 sequence (P38532 whole entry): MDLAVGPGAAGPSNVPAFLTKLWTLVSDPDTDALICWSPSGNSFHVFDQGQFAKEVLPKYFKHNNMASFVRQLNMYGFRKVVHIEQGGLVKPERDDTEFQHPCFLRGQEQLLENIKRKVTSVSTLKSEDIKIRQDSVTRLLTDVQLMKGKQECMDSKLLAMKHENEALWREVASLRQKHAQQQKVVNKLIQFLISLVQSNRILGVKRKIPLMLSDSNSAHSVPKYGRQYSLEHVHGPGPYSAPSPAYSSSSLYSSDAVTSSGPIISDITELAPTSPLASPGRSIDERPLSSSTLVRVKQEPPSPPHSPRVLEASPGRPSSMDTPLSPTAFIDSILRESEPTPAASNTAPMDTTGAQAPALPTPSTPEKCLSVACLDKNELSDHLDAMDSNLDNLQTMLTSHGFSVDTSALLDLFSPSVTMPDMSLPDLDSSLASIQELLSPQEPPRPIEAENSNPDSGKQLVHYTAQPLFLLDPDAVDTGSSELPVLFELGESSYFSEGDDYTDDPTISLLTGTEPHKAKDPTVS

SMILES	EC50
NS(=O)(=O)c1ccc(CCNC(=O)c2ccc(C#CC3(O)CCCCC3)cc2)cc1	7.97 µM (active)

target: T3, Rac GTPase-activating protein 1 (Homo sapiens, UniProt Q9H0H5); assay: MgcRacGAP GTPase-activating activity inhibitors, confirmation, biochemical, ADP Hunter fluorescence, primary and confirmatory (AID 624330); format: functional; conditions: not given
T3 sequence (Q9H0H5 whole entry): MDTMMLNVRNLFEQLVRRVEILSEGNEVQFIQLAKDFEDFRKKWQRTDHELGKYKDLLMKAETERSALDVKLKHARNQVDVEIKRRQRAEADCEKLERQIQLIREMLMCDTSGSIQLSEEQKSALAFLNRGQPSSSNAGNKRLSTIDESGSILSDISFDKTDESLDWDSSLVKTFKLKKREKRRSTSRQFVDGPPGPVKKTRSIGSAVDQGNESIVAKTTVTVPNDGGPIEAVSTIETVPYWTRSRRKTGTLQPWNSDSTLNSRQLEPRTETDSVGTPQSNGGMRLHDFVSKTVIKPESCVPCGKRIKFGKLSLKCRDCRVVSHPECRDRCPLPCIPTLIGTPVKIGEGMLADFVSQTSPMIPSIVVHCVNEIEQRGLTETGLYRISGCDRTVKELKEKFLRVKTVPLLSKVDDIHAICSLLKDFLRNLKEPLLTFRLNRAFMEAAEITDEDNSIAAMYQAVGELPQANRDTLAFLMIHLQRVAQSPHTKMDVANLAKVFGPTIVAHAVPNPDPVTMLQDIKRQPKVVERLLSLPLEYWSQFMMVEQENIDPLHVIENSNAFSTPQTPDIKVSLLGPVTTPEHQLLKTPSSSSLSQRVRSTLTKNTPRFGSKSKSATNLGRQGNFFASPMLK

SMILES	IC50
Nn1c(=S)[nH]c2sc3c(c2c1=O)CCCC3	74.3 µM (active)

system: H9c2; assay: cells; format: functional, cell-based; conditions: Rattus norvegicus, H9c2, Myocardium;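 note: confirmatory concentration-response retest of ultra-high-throughput screening hits for modulation of myocardial damage; cell death induced by hydrogen peroxide oxidative stress; compound pretreatment for 60 min then peroxide exposure for 2 h; potency is for protecting the cells against peroxide damage rather than for killing them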

SMILES	IC50
Cc1ccc(-c2csc(N3CCC[C@@H]3C(=O)NCCn3c(-c4ccncc4)nc4ccccc43)n2)cc1	> 79 µM (inactive)
COc1cc(-c2cc(NC(C)=O)c3ncc(-c4ccccc4)n3c2)cc(OC)c1OC	> 79 µM (inactive)
O=C(NCC(=O)N(Cc1cccs1)C(C(=O)NC1CCCC1)c1ccco1)c1cccs1 (configuration not stated)	> 79 µM (inactive)
COc1ccccc1NS(=O)(=O)c1cc(NC(=O)Cc2nnc(O)c3ccccc23)ccc1Cl	20 µM (active)
Brc1ccc(-c2ccc(/C=N/Nc3nc(N4CCOCC4)nc(N4CCOCC4)n3)o2)cc1	> 79 µM (inactive)
O=c1c2ccccc2oc2nc(-c3ccco3)n(Cc3ccccc3)c(=O)c12	> 79 µM (inactive)
CC(OC(=O)Cn1[nH]c(=O)c2ccccc2c1=O)C(=O)NC1(C#N)CCCCC1 (configuration not stated)	> 79 µM (inactive)
CCCN1C(=O)/C(=C/c2nc(O)c3ccccc3n2)c2ccccc21	> 79 µM (inactive)
O=C(COc1cccc2c1CCNC2=O)Nc1ccc(F)cc1	37.2 µM (inactive)
NS(=O)(=O)c1ccc(CCNC(=O)c2ccc(C#CC3(O)CCCCC3)cc2)cc1	> 79 µM (inactive)

target: T4, Protein skinhead-1 (Caenorhabditis elegans, UniProt P34707); assay: not given; format: functional; conditions: not given
T4 sequence (P34707 whole entry): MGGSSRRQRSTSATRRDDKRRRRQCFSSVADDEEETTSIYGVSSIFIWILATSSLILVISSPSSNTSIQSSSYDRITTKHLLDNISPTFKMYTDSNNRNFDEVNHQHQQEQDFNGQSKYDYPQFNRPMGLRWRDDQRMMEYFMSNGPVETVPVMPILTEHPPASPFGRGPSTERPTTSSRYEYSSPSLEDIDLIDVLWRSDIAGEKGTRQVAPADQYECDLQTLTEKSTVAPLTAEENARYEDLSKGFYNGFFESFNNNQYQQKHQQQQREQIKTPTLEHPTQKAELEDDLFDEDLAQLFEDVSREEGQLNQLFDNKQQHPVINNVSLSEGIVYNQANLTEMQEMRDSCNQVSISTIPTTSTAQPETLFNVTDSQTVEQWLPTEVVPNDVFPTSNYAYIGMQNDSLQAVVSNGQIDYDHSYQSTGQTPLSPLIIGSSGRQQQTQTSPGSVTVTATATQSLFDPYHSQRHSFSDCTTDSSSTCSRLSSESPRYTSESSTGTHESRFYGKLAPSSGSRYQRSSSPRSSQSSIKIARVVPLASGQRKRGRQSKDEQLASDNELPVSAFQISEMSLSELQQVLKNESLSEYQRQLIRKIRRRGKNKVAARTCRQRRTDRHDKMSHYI

SMILES	IC50
CCOC(=O)C1CCN(C(=O)c2ccc3c(c2)S(=O)(=O)c2ccccc2C3=O)CC1	> 100 µM (inactive)
COc1cc2[nH]c(=S)n(CCN3CCCCC3C)c(=O)c2cc1OC (configuration not stated)	> 100 µM (inactive)
COc1ccc(NS(=O)(=O)c2cccc(-c3nnc(-c4ccccc4)o3)c2)cc1	> 100 µM (inactive)
CCCc1cc(C(=O)Nc2ccc(Cl)cn2)cs1	> 100 µM (inactive)
COc1ccc(C(O)CNc2ccc(C)cc2)cc1 (configuration not stated)	> 100 µM (inactive)
Cc1c(C2=CCN(S(=O)(=O)c3ccc(Cl)cc3)CC2)c2ccccc2n1C	> 100 µM (inactive)
COCCn1c(CCC(=O)O)nc2c1c(=O)[nH]c(=O)n2CC(C)C	> 100 µM (inactive)
O=C1CC(NNC(=O)c2ccc(Br)cc2)C(=O)N1 (configuration not stated)	> 100 µM (inactive)
Nn1c(=S)[nH]c2sc3c(c2c1=O)CCCC3	> 100 µM (inactive)

target: T1, Fatty acid synthase; assay: FAS thioesterase domain inhibitors, dose response, biochemical, kinetic fluorescence intensity (AID 624326); format: functional; conditions: not given;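 note: rate of fluorescence rise from hydrolysis of a fluorogenic O-methyl fluorescein ester substrate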

SMILES	IC50
CN(C)CCCNC(=O)CC1C[C@H](C(=O)N2CCOCC2)[C@@]2(CCC3CCCC3)c3[nH]c4ccccc4c3CCN2C1=O (some centres not stated)	4.82 µM (active)
O=C(CC1C[C@H](C(=O)N2CCOCC2)[C@@]2(CCC3CCCC3)c3[nH]c4ccccc4c3CCN2C1=O)NCc1ccco1 (some centres not stated)	0.778 µM (active)
CCN(CC)S(=O)(=O)c1ccc(-n2cnc3cc(C)c(C)cc32)nc1	12.8 µM (active)
